The results in this text go back to patent US7432288B2, “Pyrrole-2,5-dione derivatives as Liver X receptor modulators” (AstraZeneca AB, priority 2003, dated 2008).

The target in this experiment is T1, LXRalpha and/or beta (human LXR ligand binding domain).
T1 construct: fused on or other part: His-tag (6xHis) on the LXR-LBD
The experiment can be described thus: Co-activator recruitment assay (time-resolved fluorescence, SRC-1 peptide). The conditions noted are these: LXR subtype (alpha or beta) not stated for these values; 22-R Hydroxycholesterol at 50 μM as 100% control; read-out: EC50 in coactivator recruitment assays. The class given is biochemical. The source says: The Ligand Binding Domain (LBD) of human LXRalpha (amino acid 205-447) and LXRbeta (amino acid 216-461) was produced by recombinant techniques in E coli. A fragment of the human Steroid Receptor Co-Activator-1 (SRC-1) was produced as a synthetic peptide. An anti-6His-antibody coupled with Europium (Eu^3+) was used to recognize the His-tag on the LXR-LBD and Allophycocyanin (APC) coupled to streptavidin was used to recognize the biotinylated SRC-1. Agonist binding to LXRalpha or LXRbeta enhances the affinity of LXR towards SRC-1 and thereby brings Eu^3+ and APC in close proximity. Eu^3+ is excited at 337 nm and emitts light at 620 nm. This emission, when in close proximity, excites APC to emit light at 665 nm.
Dilution plates with compounds in DMSO were further diluted in buffer {20 mM [Tris(hydroxymethyl)aminomethane] pH 7.5, 0.125% CHAPS {3-[(3-Cholamidopropyl)dimethylammonio]-1-propanesulfonate}, 2 mM DTT (Dithiothreitol) and 0.05% BSA (Bovine Serum Albumin)} in order to reduce DMSO concentration, 0.5 μl to 13.5 μl. To this, 6 μl assay mix was added and the plates (384-well V-groove plates) were incubated at room temperature for 60 to 80 min. […] Time-resolved fluorescence readings were done in a Wallac Victor reader at 665 nm followed by reading at 615 nm. […]

With `COc1ccc(NC2=C(c3ccccc3)C(=O)N(Cc3ccc(N(C)C)cc3)C2=O)cc1` [Example 13, 1-[4-(Dimethylamino)benzyl]-3-[(4-methoxyphenyl)amino]-4-phenyl-1H-pyrrole-2,5-dione], the 50% effective concentration (EC50) came to 150 nM.

As to `COc1ccc(NC2=C(c3ccccc3)C(=O)N(Cc3cc(C)on3)C2=O)cc1` [Example 22, 3-[(4-Methoxyphenyl)amino]-1-[(5-methylisoxazol-3-yl)methyl]-4-phenyl-1H-pyrrole-2,5-dione], the concentration for a half-maximal effect (EC50) turned out to be 110 nM.
